As usually defined, the IC50 is the concentration at which inhibition is half-maximal.

The target of one test is T1, ACVR1B (Homo sapiens, UniProt P36896).
T1 construct: purchased Reaction Biology Europe GmbH (formerly ProQinase)
T1 sequence (P36896 24-505): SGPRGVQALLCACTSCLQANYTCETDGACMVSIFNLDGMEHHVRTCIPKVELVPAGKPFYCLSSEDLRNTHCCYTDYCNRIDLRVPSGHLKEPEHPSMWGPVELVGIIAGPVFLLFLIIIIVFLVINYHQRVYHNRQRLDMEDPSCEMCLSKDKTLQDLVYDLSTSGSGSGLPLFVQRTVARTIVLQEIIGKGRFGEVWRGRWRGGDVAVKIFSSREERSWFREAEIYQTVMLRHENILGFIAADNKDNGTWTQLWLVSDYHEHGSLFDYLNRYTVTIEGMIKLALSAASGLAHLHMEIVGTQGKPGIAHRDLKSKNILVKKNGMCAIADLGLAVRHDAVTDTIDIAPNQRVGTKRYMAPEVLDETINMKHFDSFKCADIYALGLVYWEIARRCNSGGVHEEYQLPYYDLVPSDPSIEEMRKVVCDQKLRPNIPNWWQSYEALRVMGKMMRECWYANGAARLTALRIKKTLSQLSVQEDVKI
The test is described as follows: kinome screen (33PanQinase). In kind it is biochemical. On the procedure:
(§1) The Kinome Screening was performed by Reaction Biology Europe GmbH (http://reactionbiology.com; Freiburg i. Br., Germany).

The target of another test is T2, AKT2 (Homo sapiens, UniProt P31751).
T2 construct: purchased Reaction Biology Europe GmbH (formerly ProQinase)
The test is described as follows: kinome screen (33PanQinase). In kind it is biochemical. The method, then: as §1

Another test concerns the target T3, CDK9/CycT1 (Homo sapiens, UniProt P50750).
T3 construct: purchased Reaction Biology Europe GmbH (formerly ProQinase)
The test is described as follows: kinome screen (33PanQinase). In kind it is biochemical. On the procedure: as §1

The target in a further test is T4, JNK2 (Homo sapiens, UniProt P45984).
T4 construct: purchased Reaction Biology Europe GmbH (formerly ProQinase)
The test can be described thus: kinome screen (33PanQinase). It counts as biochemical. On the procedure:
as §1

The next test concerns the target T5, MEKK2 (Homo sapiens, UniProt Q9Y2U5).
T5 construct: purchased Reaction Biology Europe GmbH (formerly ProQinase)
T5 sequence (Q9Y2U5 1-619): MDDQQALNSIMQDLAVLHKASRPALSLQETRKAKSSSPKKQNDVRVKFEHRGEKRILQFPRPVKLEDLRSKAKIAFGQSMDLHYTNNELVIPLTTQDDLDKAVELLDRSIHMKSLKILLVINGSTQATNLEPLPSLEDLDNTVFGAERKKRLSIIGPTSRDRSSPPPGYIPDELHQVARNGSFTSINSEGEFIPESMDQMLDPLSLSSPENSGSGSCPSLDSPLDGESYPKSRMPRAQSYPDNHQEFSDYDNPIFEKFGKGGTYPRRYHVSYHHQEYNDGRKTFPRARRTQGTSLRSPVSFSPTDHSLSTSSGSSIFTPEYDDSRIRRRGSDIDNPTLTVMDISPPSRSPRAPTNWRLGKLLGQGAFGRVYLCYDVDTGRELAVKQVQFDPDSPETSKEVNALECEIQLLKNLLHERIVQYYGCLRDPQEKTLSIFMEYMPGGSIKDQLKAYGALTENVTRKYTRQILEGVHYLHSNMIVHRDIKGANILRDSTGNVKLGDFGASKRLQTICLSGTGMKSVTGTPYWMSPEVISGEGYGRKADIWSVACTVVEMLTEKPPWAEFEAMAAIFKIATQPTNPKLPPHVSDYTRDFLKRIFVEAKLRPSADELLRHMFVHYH
The test is described as follows: kinome screen (33PanQinase). It counts as biochemical. On the procedure:
as §1

The target of another test is T6, MET (Homo sapiens, UniProt P08581).
T6 construct: purchased Reaction Biology Europe GmbH (formerly ProQinase)
The test can be described thus: kinome screen (33PanQinase). It counts as biochemical. The method, then:
as §1

The target in the next test is T7, NEK1 (Homo sapiens, UniProt Q96PY6).
T7 construct: purchased Reaction Biology Europe GmbH (formerly ProQinase)
T7 sequence (Q96PY6 1-1258): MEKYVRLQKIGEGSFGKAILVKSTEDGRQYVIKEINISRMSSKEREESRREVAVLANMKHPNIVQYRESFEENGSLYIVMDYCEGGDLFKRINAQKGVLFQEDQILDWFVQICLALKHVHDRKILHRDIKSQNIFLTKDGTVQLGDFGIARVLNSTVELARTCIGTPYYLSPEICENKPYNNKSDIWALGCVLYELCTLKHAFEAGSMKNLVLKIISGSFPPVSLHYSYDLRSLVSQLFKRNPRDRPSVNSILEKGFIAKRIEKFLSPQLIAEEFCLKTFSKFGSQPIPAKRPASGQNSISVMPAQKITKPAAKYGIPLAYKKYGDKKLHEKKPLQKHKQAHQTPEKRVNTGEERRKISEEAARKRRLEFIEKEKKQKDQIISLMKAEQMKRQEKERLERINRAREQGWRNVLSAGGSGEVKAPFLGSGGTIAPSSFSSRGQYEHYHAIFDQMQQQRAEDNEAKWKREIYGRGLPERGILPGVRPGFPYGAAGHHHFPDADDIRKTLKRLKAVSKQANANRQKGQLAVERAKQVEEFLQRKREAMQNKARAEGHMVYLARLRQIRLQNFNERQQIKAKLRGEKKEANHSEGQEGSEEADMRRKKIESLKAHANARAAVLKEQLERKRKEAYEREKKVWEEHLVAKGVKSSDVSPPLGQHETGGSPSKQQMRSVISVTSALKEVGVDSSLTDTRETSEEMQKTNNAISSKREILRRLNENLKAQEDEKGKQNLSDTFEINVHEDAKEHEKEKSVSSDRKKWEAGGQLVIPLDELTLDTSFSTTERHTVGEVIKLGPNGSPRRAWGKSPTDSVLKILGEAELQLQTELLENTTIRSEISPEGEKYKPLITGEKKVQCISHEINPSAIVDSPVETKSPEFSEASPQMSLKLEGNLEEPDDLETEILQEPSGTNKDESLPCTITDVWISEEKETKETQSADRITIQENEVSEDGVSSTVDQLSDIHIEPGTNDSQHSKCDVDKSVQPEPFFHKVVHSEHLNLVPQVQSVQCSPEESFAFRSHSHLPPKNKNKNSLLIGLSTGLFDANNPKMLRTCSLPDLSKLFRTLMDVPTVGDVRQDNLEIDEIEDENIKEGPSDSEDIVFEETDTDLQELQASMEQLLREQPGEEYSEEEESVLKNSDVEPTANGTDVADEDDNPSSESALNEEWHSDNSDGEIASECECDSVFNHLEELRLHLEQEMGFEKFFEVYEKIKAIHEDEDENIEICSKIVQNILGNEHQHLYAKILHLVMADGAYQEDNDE
The test is described as follows: kinome screen (33PanQinase). It counts as biochemical. The method, then:
as §1

Another test concerns KOPTK1. Particulars: read-out: IC50 (KOPTK1); cytotoxicity, 24 h.
The test system of test [1] is CLL16 chronic lymphocytic leukemia cells. The note with it: read-out: IC50 (CLL16); primary patient cells, 24 h.
Description: For chronic lymphocytic leukemia, mononuclear cells were isolated from peripheral blood using a Ficoll gradient (GE Healthcare). Primary cells from other lymphoma entities were isolated as previously described [80]. All cells were cryopreserved after isolation and thawed as previously described [81].
(§2) The resazurin reduction assay, which is also known as AlamarBlue® assay, was used for the determination of cell viability in all cytotoxicity determinations shown in the present work, as previously described [22]. Briefly, cells were seeded at a specific density depending on the incubation time (24 h: 1 × 10^6 cells/ml) in a 96-well plate and incubated with increasing compound concentrations (0.01–30 µM). After the specified treatment time, resazurin (Sigma, #R7017) was added to a final concentration of 40 µM. […] The viability of control cells was set to 100% and all other values were normalized to the control condition, the dose-response curves were then fitted with Prism v7.01 (GraphPad software, La Jolla, CA, USA). The reduction of resazurin to resorufin is proportional to aerobic respiration; therefore, it is used as a measure for the cell viability and cytotoxicity of a tested compound.

The structures appear in SMILES notation.

T4 sequence (P45984 whole entry): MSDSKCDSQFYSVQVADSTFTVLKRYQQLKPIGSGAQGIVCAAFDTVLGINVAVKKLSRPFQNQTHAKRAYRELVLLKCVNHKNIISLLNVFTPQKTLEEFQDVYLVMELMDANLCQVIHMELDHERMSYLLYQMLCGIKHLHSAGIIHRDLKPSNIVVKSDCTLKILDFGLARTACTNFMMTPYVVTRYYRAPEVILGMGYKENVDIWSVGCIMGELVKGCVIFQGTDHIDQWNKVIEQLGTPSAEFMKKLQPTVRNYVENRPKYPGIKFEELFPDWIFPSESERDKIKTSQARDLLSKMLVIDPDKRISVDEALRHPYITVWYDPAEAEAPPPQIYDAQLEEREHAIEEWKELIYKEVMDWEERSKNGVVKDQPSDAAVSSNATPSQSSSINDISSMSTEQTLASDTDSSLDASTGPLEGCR
T3 sequence (P50750 whole entry): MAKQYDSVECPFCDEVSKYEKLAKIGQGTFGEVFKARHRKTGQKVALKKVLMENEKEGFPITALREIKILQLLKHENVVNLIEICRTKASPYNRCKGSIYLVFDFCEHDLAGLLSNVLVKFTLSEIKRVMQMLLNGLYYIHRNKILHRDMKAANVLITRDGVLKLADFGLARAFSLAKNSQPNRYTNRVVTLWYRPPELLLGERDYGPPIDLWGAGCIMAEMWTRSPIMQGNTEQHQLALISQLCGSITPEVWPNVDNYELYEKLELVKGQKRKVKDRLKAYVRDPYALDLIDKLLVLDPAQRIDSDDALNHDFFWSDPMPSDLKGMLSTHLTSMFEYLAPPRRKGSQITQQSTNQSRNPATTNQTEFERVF
T3 sequence (O60563 whole entry partner): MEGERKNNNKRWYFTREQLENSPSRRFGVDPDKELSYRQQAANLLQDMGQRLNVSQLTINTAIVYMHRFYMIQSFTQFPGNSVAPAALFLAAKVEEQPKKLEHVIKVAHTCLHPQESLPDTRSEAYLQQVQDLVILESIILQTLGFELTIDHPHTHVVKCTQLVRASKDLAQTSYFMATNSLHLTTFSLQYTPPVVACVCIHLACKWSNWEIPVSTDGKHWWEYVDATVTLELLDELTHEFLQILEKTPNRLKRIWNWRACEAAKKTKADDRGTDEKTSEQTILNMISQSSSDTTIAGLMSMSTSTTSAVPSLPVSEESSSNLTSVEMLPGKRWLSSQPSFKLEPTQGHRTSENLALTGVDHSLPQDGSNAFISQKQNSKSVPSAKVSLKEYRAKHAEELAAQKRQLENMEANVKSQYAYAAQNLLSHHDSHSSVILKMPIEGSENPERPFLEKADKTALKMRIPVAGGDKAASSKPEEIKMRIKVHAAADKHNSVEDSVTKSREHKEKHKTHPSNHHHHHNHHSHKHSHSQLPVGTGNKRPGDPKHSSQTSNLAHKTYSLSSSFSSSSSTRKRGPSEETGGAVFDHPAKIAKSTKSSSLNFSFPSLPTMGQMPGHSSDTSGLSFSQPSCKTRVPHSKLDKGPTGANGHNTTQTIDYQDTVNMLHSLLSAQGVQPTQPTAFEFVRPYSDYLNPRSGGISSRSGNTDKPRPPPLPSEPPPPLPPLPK
T6 sequence (P08581 25-1390): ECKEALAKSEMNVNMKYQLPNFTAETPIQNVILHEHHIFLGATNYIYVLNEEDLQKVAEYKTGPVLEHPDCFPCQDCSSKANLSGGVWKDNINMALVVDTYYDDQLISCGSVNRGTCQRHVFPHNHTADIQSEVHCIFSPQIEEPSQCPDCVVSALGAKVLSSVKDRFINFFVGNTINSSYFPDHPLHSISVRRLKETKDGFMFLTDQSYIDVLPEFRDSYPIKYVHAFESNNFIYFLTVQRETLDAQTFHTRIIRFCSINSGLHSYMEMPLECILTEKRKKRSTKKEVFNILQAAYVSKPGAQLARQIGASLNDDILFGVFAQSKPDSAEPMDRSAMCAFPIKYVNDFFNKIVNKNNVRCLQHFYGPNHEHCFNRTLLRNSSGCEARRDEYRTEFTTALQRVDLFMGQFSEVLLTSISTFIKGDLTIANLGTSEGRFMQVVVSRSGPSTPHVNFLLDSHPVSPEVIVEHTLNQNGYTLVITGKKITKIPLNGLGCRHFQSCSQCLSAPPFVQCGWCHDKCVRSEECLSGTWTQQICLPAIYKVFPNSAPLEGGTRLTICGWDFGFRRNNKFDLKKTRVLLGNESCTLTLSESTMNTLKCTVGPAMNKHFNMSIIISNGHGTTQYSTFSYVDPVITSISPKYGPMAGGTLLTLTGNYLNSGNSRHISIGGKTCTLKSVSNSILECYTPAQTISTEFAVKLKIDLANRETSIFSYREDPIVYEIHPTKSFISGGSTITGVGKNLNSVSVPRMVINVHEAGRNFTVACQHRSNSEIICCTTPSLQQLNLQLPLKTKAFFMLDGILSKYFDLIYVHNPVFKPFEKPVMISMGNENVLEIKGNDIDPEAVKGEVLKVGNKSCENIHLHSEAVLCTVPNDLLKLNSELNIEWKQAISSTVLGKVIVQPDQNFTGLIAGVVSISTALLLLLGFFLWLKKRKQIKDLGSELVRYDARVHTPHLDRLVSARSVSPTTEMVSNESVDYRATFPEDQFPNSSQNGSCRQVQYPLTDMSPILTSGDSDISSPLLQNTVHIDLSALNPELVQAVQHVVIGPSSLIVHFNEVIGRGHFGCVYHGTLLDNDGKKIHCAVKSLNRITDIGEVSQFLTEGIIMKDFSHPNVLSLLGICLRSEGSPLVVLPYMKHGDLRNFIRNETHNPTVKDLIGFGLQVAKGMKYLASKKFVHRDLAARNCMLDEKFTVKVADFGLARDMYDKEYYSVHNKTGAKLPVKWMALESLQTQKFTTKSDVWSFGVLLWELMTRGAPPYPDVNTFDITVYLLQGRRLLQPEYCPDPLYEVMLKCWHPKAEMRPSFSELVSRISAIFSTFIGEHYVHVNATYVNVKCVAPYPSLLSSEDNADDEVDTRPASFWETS
T2 sequence (P31751 whole entry): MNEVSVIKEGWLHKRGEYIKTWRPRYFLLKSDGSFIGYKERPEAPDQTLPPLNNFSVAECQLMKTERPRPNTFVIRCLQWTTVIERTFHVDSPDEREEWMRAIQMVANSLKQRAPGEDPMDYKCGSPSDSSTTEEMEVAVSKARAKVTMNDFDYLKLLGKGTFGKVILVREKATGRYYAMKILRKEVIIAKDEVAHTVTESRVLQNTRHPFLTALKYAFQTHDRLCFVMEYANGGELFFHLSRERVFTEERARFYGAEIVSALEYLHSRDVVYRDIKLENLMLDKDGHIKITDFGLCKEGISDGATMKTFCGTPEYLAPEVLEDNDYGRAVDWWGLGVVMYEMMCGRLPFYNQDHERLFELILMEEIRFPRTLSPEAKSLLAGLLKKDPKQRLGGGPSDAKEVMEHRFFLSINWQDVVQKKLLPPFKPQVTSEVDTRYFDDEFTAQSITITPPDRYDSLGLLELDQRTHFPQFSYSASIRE
Protocol for KOPTK1: as §2

As to `c1ccc(CNc2cc(-c3c[nH]c4ncccc34)ccn2)cc1` [meriolin 36], the residual kinase activity on ACVR1B (0.3 µM) was 43 % of control; on ACVR1B (3 µM), 10 % of control; at AKT2 (0.3 µM), 102 % of control; at AKT2 (3 µM) it was 75 % of control; on CDK9/CycT1 (0.3 µM) it was 1 % of control; on CDK9/CycT1 (3 µM) it was 0 % of control. Further, the residual kinase activity at JNK2 (0.3 µM) is reported as 63 % of control; on JNK2 (3 µM), 29 % of control; on MEKK2 (0.3 µM) it was 66 % of control; on MEKK2 (3 µM) it was 18 % of control; on MET (0.3 µM), 99 % of control; on MET (3 µM), 48 % of control. The residual kinase activity at NEK1 (0.3 µM) is given as 84 % of control; at NEK1 (3 µM), 55 % of control. The IC50 amounted to 1220 nM in the test on KOPTK1 and 200 nM in [1].
As to `COc1ccnc2[nH]cc(-c3cc(N)nc(N)c3)c12` [meriolin 16], the residual kinase activity is 75 % of control at ACVR1B (0.03 µM); 69 % of control on ACVR1B (0.3 µM); 98 % of control at AKT2 (0.03 µM); 79 % of control at AKT2 (0.3 µM); 13 % of control at CDK9/CycT1 (0.03 µM); 2 % of control on CDK9/CycT1 (0.3 µM). The residual kinase activity at JNK2 (0.03 µM) is 78 % of control; on JNK2 (0.3 µM), 85 % of control; on MEKK2 (0.03 µM), 95 % of control; on MEKK2 (0.3 µM) it was 91 % of control; at MET (0.03 µM), 110 % of control; at MET (0.3 µM), 106 % of control. Besides, the values for the residual kinase activity at NEK1 (0.03 µM) and at NEK1 (0.3 µM) were 86 % of control and 67 % of control, respectively. In addition, the IC50 in the test on KOPTK1 stood at 10 nM; in test [1] it was 60 nM.

These data come from paper PMC11167047 (Cell Death Discovery, 2024).
